Experimental data as given in ChEMBL document CHEMBL4118249, “Discovery and Identification of Small Molecules as Methuosis Inducers with in Vivo Antitumor Activities” (J Med Chem, 2018).

How the values were obtained:
MDA-MB-231 [1] = test: Induction of methuosis in human MDA-MB-231 cells assessed as increase in vacuole formation at 1 uM after 24 hrs by phase contrast microscopic analysis relative to control; format: functional
MDA-MB-231 [2] = test: Induction of methuosis in human MDA-MB-231 cells assessed as increase in vacuole formation at 10 uM after 24 hrs by phase contrast microscopic analysis relative to control; format: functional

Structure (SMILES) | Activity (MDA-MB-231 [1]) [%] | Activity (MDA-MB-231 [2]) [%]
Cc1ccc(C(=O)Nc2cccc(Cl)c2)cc1Nc1cc(-c2cccnc2)nc2[nH]ccc12 | 19.49 | 96.75
O=C(Nc1cccc(C(F)(F)F)c1)c1cccc(Nc2cc(-c3cccnc3)nc3[nH]ccc23)c1 | 3.78 | 80.23
Cc1cc(NC(=O)c2ccc(C)c(Nc3cc(-c4cccnc4)nc4[nH]ccc34)c2)n(C)n1 | 2.48 | 95.24
Cc1ccc(C(=O)N2CCOCC2)cc1Nc1cc(-c2cccnc2)nc2[nH]ccc12 | 0 | 0
Cc1ccc(C(=O)Nc2cc(C(F)(F)F)cc(C(F)(F)F)c2)cc1Nc1cc(-c2cccnc2)nc2[nH]ccc12 | 0 | 0
Cc1ccc(NC(=O)c2cccc(C(F)(F)F)c2)cc1Nc1cc(-c2ccccc2)nc2[nH]ccc12 | 0 | 0
Cc1ccc(NC(=O)c2cccc(C(F)(F)F)c2)cc1Nc1cc(-c2cccc(Cl)c2)nc2[nH]ccc12 | 0.03 | 0.33
Cc1ccc(C(=O)Nc2cccc(OC(F)(F)F)c2)cc1Nc1cc(-c2cccnc2)nc2[nH]ccc12 | 38.57 | 99.66
O=C(Nc1cccc(Nc2cc(-c3cccnc3)nc3[nH]ccc23)c1)c1cccc(C(F)(F)F)c1 | 96.61 | 98.98
Cc1ccc(C(=O)Nc2cccc(C(F)(F)F)c2)cc1Nc1cc(-c2cccnc2)nc2[nH]ccc12 | 70.29 | 99.42
Cc1cccc(NC(=O)c2ccc(C)c(Nc3cc(-c4cccnc4)nc4[nH]ccc34)c2)c1 | 11.24 | 97.68
Cc1ccc(NC(=O)c2cccc(C(F)(F)F)c2)cc1Nc1cc(-c2cccc(N)c2)nc2[nH]ccc12 | 0.27 | 1.63
Cc1ccc(NC(=O)c2cccc(C(F)(F)F)c2)cc1Nc1cc(-c2ccncc2)nc2[nH]ccc12 | 1.46 | 96.34
Cc1ccc(C(=O)Nc2cc(CN3CCN(C)CC3)cc(C(F)(F)F)c2)cc1Nc1cc(-c2cccnc2)nc2[nH]ccc12 | 0.62 | 0
Cc1ccc(NC(=O)c2cccc(C(F)(F)F)c2)cc1Nc1cc(-c2ccoc2)nc2[nH]ccc12 | 0.24 | 0
Cc1ccc(NC(=O)c2cccc(C(F)(F)F)c2)cc1Nc1cc(-c2ccsc2)nc2[nH]ccc12 | 0 | 0.21
Cc1ccc(NC(=S)Nc2cccc(C(F)(F)F)c2)cc1Nc1cc(-c2cccnc2)nc2[nH]ccc12 | 1.26 | 87.3
Cc1ccc(C(=O)Nc2cccc(C(F)(F)F)c2)cc1Nc1cc(-c2ccncc2)nc2[nH]ccc12 | 0 | 1.94
Cc1ccc(NC(=O)c2cccc(C(F)(F)F)c2)cc1Nc1cc(-c2cccnc2)nc2c1ccn2C | 16.08 | 96.27
Cc1ccc(C(=O)Nc2cccc(C(F)(F)F)c2)cc1Nc1cc(-c2cccnc2)nc2c1ccn2C | 3.63 | 70.96
COc1cccc(NC(=O)c2ccc(C)c(Nc3cc(-c4cccnc4)nc4[nH]ccc34)c2)c1 | 76.86 | 100
